Read-outs that look alike come from different tables or passages of the source.
Target: T1, BCL6 (Homo sapiens, UniProt P41182)
T1 construct: endogenous in cells; host or cells: T47D breast cancer epithelial cells
Assay: Immunofluorescence protocol for high content imaging of BCL6 (degradation) in T47D cells, 3 days compound treatment
Format: cell-based
Conditions: for Dmax: read-out: Mean Dmax (%)** category; for DC50: read-out: Mean DC50 (nM)* category
In short: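 Remaining BCL6 in breast cancer T47D cells was measured by high-content immunofluorescence imaging after 3 days of treatment with serially diluted compound (top 0.1 or 1 μM). Nuclei were stained with Hoechst and cells with CellMask.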

[1] = T47D cells, 3 days compound treatment

CNC(=O)COc1cc2cc(Nc3nc(N4CCC(O[C@H]5C[C@H](N6CCN(c7ccc8c(c7)C(=O)N(C7CCC(=O)NC7=O)C8=O)C[C@H]6C)C5)CC4)ncc3Cl)ccc2n(C(C)C)c1=O (stereo partly drawn) [Compound 263, 2-({6-[(5-chloro-2-{4-[(1r,3r)-3-[(2R)-4-[2-(2,6-dioxopiperidin-3-yl)-1,3-dioxo-2,3-dihydro-1H-isoindol-5-yl]-2-methylpiperazin-1-yl]cyclobutoxy]piperidin-1-yl}pyrimidin-4-yl)amino]-2-oxo-1-(propan-2-yl)-1,2-dihydroquinolin-3-yl}oxy)-N-methylacetamide]
Dmax (T47D): 50 to 70%
DC50: < 10 nM

CNC(=O)COc1cc2cc(Nc3nc(N4CCC(CN5CCC6(CCN(c7ccc8c(c7)CN(C7CCC(=O)NC7=O)C8=O)C6=O)C5)CC4)ncc3Cl)ccc2n(C(C)C)c1=O (stereo not drawn) [Compound 48, 2-{[6-({5-chloro-2-[4-({7-[2-(2,6-dioxopiperidin-3-yl)-1-oxo-2,3-dihydro-1H-isoindol-5-yl]-6-oxo-2,7-diazaspiro[4.4]nonan-2-yl}methyl)piperidin-1-yl]pyrimidin-4-yl}amino)-2-oxo-1-(propan-2-yl)-1,2-dihydroquinolin-3-yl]oxy}-N-methylacetamide]
DC50 [1]: < 10 nM
Dmax [1]: 50 to 70%

CNC(=O)COc1cc2c(F)c(Nc3cc(N4CCC(F)(CN5CCC6(CC5)CN(c5ccc7c(c5F)CN(C5CCC(=O)NC5=O)C7=O)C6)CC4)ncc3Cl)ccc2n(C(C)C)c1=O (stereo not drawn) [Compound 259, 2-{[6-({5-chloro-2-[4-({2-[2-(2,6-dioxopiperidin-3-yl)-4-fluoro-1-oxo-2,3-dihydro-1H-isoindol-5-yl]-2,7-diazaspiro[3.5]nonan-7-yl}methyl)-4-fluoropiperidin-1-yl]pyridin-4-yl}amino)-5-fluoro-2-oxo-1-(propan-2-yl)-1,2-dihydroquinolin-3-yl]oxy}-N-methylacetamide]
Dmax (T47D): 50 to 70%
DC50: < 10 nM

CNC(=O)COc1cc2cc(Nc3nc(N4CCOC5(CN(CC6CCN(c7ccc8c(c7)C(=O)N(C7CCC(=O)NC7=O)C8=O)CC6)C5)C4)ncc3Cl)ccc2n(C(C)C)c1=O (stereo not drawn) [Compound 142, 2-{[6-({5-chloro-2-[2-({1-[2-(2,6-dioxopiperidin-3-yl)-1,3-dioxo-2,3-dihydro-1H-isoindol-5-yl]piperidin-4-yl}methyl)-5-oxa-2,8-diazaspiro[3.5]nonan-8-yl]pyrimidin-4-yl}amino)-2-oxo-1-(propan-2-yl)-1,2-dihydroquinolin-3-yl]oxy}-N-methylacetamide]
DC50 [1]: ≥ 100 nM

CCn1c(=O)c(OCC(=O)NC)cc2cc(Nc3nc(N4CCC(O[C@H]5C[C@H](N6CCC(c7cccc8c7C(=O)N(C7CCC(=O)NC7=O)C8=O)CC6)C5)CC4)ncc3Cl)ccc21 (stereo partly drawn) [Compound 140, 2-({6-[(5-chloro-2-{4-[(1r,3r)-3-{4-[2-(2,6-dioxopiperidin-3-yl)-1,3-dioxo-2,3-dihydro-1H-isoindol-4-yl]piperidin-1-yl}cyclobutoxy]piperidin-1-yl}pyrimidin-4-yl)amino]-1-ethyl-2-oxo-1,2-dihydroquinolin-3-yl}oxy)-N-methylacetamide]
DC50 [1]: 50 to 100 nM
Dmax [1]: ≥ 70%

CNC(=O)COc1cc2cc(Nc3nc(N4CCC(CN5CCC6(CN(c7cc8c(c(OC)c7)C(=O)N(C7CCC(=O)NC7=O)C8)C6)C(F)(F)C5)CC4)ncc3Cl)ccc2n(C(C)C)c1=O (stereo not drawn) [Compound 101, 2-{[6-({5-chloro-2-[4-({2-[2-(2,6-dioxopiperidin-3-yl)-7-methoxy-1-oxo-2,3-dihydro-1H-isoindol-5-yl]-5,5-difluoro-2,7-diazaspiro[3.5]nonan-7-yl}methyl)piperidin-1-yl]pyrimidin-4-yl}amino)-2-oxo-1-(propan-2-yl)-1,2-dihydroquinolin-3-yl]oxy}-N-methylacetamide]
DC50 [1]: < 10 nM
Dmax [1]: 50 to 70%

CNC(=O)COc1cc2cc(Nc3nc(N4CCC(O[C@H]5C[C@H](N6C[C@H](C)N(c7ccc8c(c7)CN(C7CCC(=O)NC7=O)C8=O)[C@@H](C)C6)C5)CC4)ncc3Cl)ccc2n(C(C)C)c1=O (relative stereo) [Compound 180, 2-({6-[(5-chloro-2-{4-[(1r,3r)-3-[(3R*,5R*)-4-[2-(2,6-dioxopiperidin-3-yl)-1-oxo-2,3-dihydro-1H-isoindol-5-yl]-3,5-dimethylpiperazin-1-yl]cyclobutoxy]piperidin-1-yl}pyrimidin-4-yl)amino]-2-ox0-1-(propan-2-yl)-1,2-dihydroquinolin-3-yl}oxy)-N-methylacetamide]
DC50 [1]: < 10 nM
Dmax [1]: ≥ 70%

CNC(=O)COc1cc2cc(Nc3nc(N4CCC(F)(CN5CCC6(CC5)CCN(c5c(F)ccc7c5C(=O)N(C5CCC(=O)NC5=O)C7)CC6)CC4)ncc3Cl)ccc2n(C(C)C)c1=O (stereo not drawn) [Compound 93, 2-{[6-({5-chloro-2-[4-({9-[2-(2,6-dioxopiperidin-3-yl)-5-fluoro-3-oxo-2,3-dihydro-1H-isoindol-4-yl]-3,9-diazaspiro [5.5]undecan-3-yl}methyl)-4-fluoropiperidin-1-yl]pyrimidin-4-yl}amino)-2-oxo-1-(propan-2-yl)-1,2-dihydroquinolin-3-yl]oxy}-N-methylacetamide]
DC50 [1]: ≥ 100 nM
Dmax [1]: ≥ 70%

CNC(=O)COc1cc2cc(Nc3nc(N4CCC(N5CCC6(C5)CN(C5CCN(c7ccc8c(c7)C(=O)N(C7CCC(=O)NC7=O)C8=O)CC5)C6)CC4)ncc3Cl)ccc2n(C(C)C)c1=O (stereo not drawn) [Compound 224, 2-{[6-({5-chloro-2-[4-(2-{1-[2-(2,6-dioxopiperidin-3-yl)-1,3-dioxo-2,3-dihydro-1H-isoindol-5-yl]piperidin-4-yl}-2,6-diazaspiro[3.4]octan-6-yl)piperidin-1-yl]pyrimidin-4-yl}amino)-2-oxo-1-(propan-2-yl)-1,2-dihydroquinolin-3-yl]oxy}-N-methylacetamide]
Dmax (T47D): ≥ 70%
DC50: 10 to 50 nM

CNC(=O)COc1cc2cc(Nc3nc(N4CCC(CN5CCC6(CN(c7ccc8c(c7)C(=O)N(C7CCC(=O)NC7=O)C8=O)C6)CC5(C)C)CC4)ncc3Cl)ccc2n(C(C)C)c1=O (stereo not drawn) [Compound 239, 2-{[6-({5-chloro-2-[4-({2-[2-(2,6-dioxopiperidin-3-yl)-1,3-dioxo-2,3-dihydro-1H-isoindol-5-yl]-6,6-dimethyl-2,7-diazaspiro[3.5]nonan-7-yl}methyl)piperidin-1-yl]pyrimidin-4-yl}amino)-2-oxo-1-(propan-2-yl)-1,2-dihydroquinolin-3-yl]oxy}-N-methylacetamide]
Dmax (T47D): ≥ 70%
DC50: < 10 nM

CNC(=O)COc1cc2cc(Nc3nc(N4CCC(OC5CCC6(CC5)CN(c5ccc7c(c5)CN(C5CCC(=O)NC5=O)C7=O)C6)CC4)ncc3Cl)ccc2n(C(C)C)c1=O (stereo not drawn) [Compound 49, 2-{[6-({5-chloro-2-[4-({2-[2-(2,6-dioxopiperidin-3-yl)-1-oxo-2,3-dihydro-1H-isoindol-5-yl]-2-azaspiro[3.5]nonan-7-yl}oxy)piperidin-1-yl]pyrimidin-4-yl}amino)-2-oxo-1-(propan-2-yl)-1,2-dihydroquinolin-3-yl]oxy}-N-methylacetamide]
DC50 [1]: < 10 nM
Dmax [1]: 50 to 70%

From patent publication US11986532B2 (Arvinas Operations, Inc., priority 2021, dated 2024)
